Among the data in BindingDB's records for doi:10.1016/s0960-894x(01)00246-3 (Rohm and Haas, 2001) are EC50 values, retold here.

Molecules are shown by their SMILES.

In general, EC50 refers to the concentration at which the effect is half-maximal. A high value points to lower potency in that assay.

This assay deals with Tubulin alpha/beta (Bos taurus). The assay can be described thus: Inhibition of Bos taurus (bovine) brain tubulin polymerization.
The compound `O=[N+]([O-])[C@@H]1CC=CC[C@H]1c1ccccc1` [((1S,6R)-6-Nitro-cyclohex-3-enyl)-benzene] displayed an EC50 above 100 µM.
The compound `COc1ccc(-c2ccc(OC)c(OC)c2OC)c([N+](=O)[O-])c1` [2,3,4,4'-Tetramethoxy-2'-nitro-biphenyl] gave an EC50 of 6.25 µM.
In turn, `COc1ccc(-c2ccc(OC)c(OC)c2OC)c(C)c1` [2,3,4,4'-Tetramethoxy-2'-methyl-biphenyl] gave an EC50 of 6.25 µM.
Consider `COc1cccc([C@@H]2CC=CC[C@H]2[N+](=O)[O-])c1` [1-Methoxy-3-((1S,6R)-6-nitro-cyclohex-3-enyl)-benzene], for which the concentration for a half-maximal effect (EC50) was above 100 µM.
On to `COc1ccc(-c2ccc(OC)c(OC)c2OC)c(C#N)c1` [4,2',3',4'-Tetramethoxy-biphenyl-2-carbonitrile], for which the 50% effective concentration (EC50) was 6.25 µM.
`COc1ccc(-c2ccc(OC)c(OC)c2OC)cc1` [2,3,4,4'-Tetramethoxy-biphenyl]: the EC50 stood at 6.25 µM.
`COc1ccc(C2CC=CCC2C#N)c(OC)c1OC` (centres undefined) [6-(2,3,4-Trimethoxy-phenyl)-cyclohex-3-enecarbonitrile] registered a 50% effective concentration (EC50) above 100 µM.
For the compound `COc1ccc(-c2ccccc2[N+](=O)[O-])c(OC)c1OC` [2,3,4-Trimethoxy-2'-nitro-biphenyl], the EC50 was above 100 µM.
To `COc1ccc(-c2ccccc2C#N)c(OC)c1OC` [2',3',4'-Trimethoxy-biphenyl-2-carbonitrile] belongs 50 µM.
